Laboratory results from patent US7989649B2, “Tumor imaging compounds” (Emory University, priority 2002, dated 2011).

Assay: Rodent biodistribution study in normal Fischer rats
Format: in vivo, rat
Conditions: for Tissue distribution of radioactivity, Liver / Tissue distribution of radioactivity, Lung / Tissue distribution of radioactivity, Muscle / Tissue distribution of radioactivity, Pancreas / Tissue distribution of radioactivity, Spleen / Tissue distribution of radioactivity, Testis / Tissue distribution of radioactivity, Kidney / Tissue distribution of radioactivity, Blood / Tissue distribution of radioactivity, Bone / Tissue distribution of radioactivity, Brain / Tissue distribution of radioactivity, Heart: normal Fischer rats
Description: Rodent biodistribution studies. The same procedures were used to evaluate [^18F]5a and [^18F]5b separately in rodents. The tissue distribution of radioactivity was determined in 16 normal male Fischer 344 rats (200-250 g) after intravenous injection of ˜85 μCi of [^18F]5a or [^18F]5b in 0.3 mL of sterile water. The animals were allowed food and water ad libitum before the experiment. Following anesthesia induced with an intramuscular injection of 0.1 mL/100 g of a 1:1 ketamine ([…]):xylazine (20 mg/mL) solution, the radiolabeled amino acid was injected into the rats via tail vein catheters. Groups of four rats were killed at 5 minutes, 30 minutes, 60 minutes and 120 minutes after injection of the dose. The animals were dissected, and selected tissues were weighed and counted along with dose standards in a Packard Cobra II Auto-Gamma Counter. The raw counts were decay corrected, and the counts were normalized as the percent of total injected dose per gram of tissue (% ID/g). A comparison of the uptake of activity in the tissues at each time point was analyzed using a 1-way ANOVA (GraphPad Prism software package).

[1] = 5 min after injection, listed as [^18F]FAMP (5a)
[2] = 120 min after injection, listed as [^18F]FAMP (5a)

CC(N)(CF)C(=O)O (racemic) [[^18F]5a, 2-amino-3-fluoro-2-methylpropanoic acid]
Tissue distribution of radioactivity, Liver (5 min after injection): 0.65 percent dose per gram
Tissue distribution of radioactivity, Lung (5 min after injection): 0.55 ± 0.006 percent dose per gram
Tissue distribution of radioactivity, Muscle (5 min after injection): 0.22 ± 0.013 percent dose per gram
Tissue distribution of radioactivity, Pancreas (5 min after injection): 3.46 percent dose per gram
Tissue distribution of radioactivity, Spleen (5 min after injection): 0.83 ± 0.05 percent dose per gram
Tissue distribution of radioactivity, Testis (5 min after injection): 0.17 ± 0.010 percent dose per gram
Tissue distribution of radioactivity, Kidney [1]: 6.36 ± 0.36 percent dose per gram
Tissue distribution of radioactivity, Liver [1]: 0.65 ± 0.05 percent dose per gram
Tissue distribution of radioactivity, Pancreas [1]: 3.46 ± 0.19 percent dose per gram
Tissue distribution of radioactivity, Blood (30 min after injection): 0.25 ± 0.014 percent dose per gram
Tissue distribution of radioactivity, Bone (30 min after injection): 0.22 ± 0.02 percent dose per gram
Tissue distribution of radioactivity, Brain (30 min after injection): 0.05 ± 0.004 percent dose per gram
Tissue distribution of radioactivity, Heart (30 min after injection): 0.29 ± 0.04 percent dose per gram
Tissue distribution of radioactivity, Kidney (30 min after injection): 5.59 ± 0.28 percent dose per gram
Tissue distribution of radioactivity, Liver (30 min after injection): 0.56 ± 0.04 percent dose per gram
Tissue distribution of radioactivity, Lung (30 min after injection): 0.54 ± 0.12 percent dose per gram
Tissue distribution of radioactivity, Muscle (30 min after injection): 0.22 ± 0.009 percent dose per gram
Tissue distribution of radioactivity, Pancreas (30 min after injection): 2.93 ± 0.20 percent dose per gram
Tissue distribution of radioactivity, Spleen (30 min after injection): 0.54 ± 0.03 percent dose per gram
Tissue distribution of radioactivity, Testis (30 min after injection): 0.10 ± 0.006 percent dose per gram
Tissue distribution of radioactivity, Blood (60 min after injection): 0.22 ± 0.02 percent dose per gram
Tissue distribution of radioactivity, Bone (60 min after injection): 0.19 ± 0.03 percent dose per gram
Tissue distribution of radioactivity, Brain (60 min after injection): 0.06 ± 0.004 percent dose per gram
Tissue distribution of radioactivity, Heart (60 min after injection): 0.28 ± 0.013 percent dose per gram
Tissue distribution of radioactivity, Kidney (60 min after injection): 4.74 ± 0.15 percent dose per gram
Tissue distribution of radioactivity, Liver (60 min after injection): 0.50 ± 0.013 percent dose per gram
Tissue distribution of radioactivity, Lung (60 min after injection): 0.44 ± 0.05 percent dose per gram
Tissue distribution of radioactivity, Muscle (60 min after injection): 0.26 ± 0.02 percent dose per gram
Tissue distribution of radioactivity, Pancreas (60 min after injection): 2.95 ± 0.27 percent dose per gram
Tissue distribution of radioactivity, Spleen (60 min after injection): 0.50 ± 0.04 percent dose per gram
Tissue distribution of radioactivity, Testis (60 min after injection): 0.12 ± 0.006 percent dose per gram
Tissue distribution of radioactivity, Blood (120 min after injection): 0.15 ± 0.005 percent dose per gram
Tissue distribution of radioactivity, Bone (120 min after injection): 0.13 ± 0.012 percent dose per gram
Tissue distribution of radioactivity, Brain (120 min after injection): 0.05 ± 0.001 percent dose per gram
Tissue distribution of radioactivity, Heart (120 min after injection): 0.23 ± 0.03 percent dose per gram
Tissue distribution of radioactivity, Kidney (120 min after injection): 2.97 percent dose per gram
Tissue distribution of radioactivity, Liver (120 min after injection): 0.48 percent dose per gram
Tissue distribution of radioactivity, Lung (120 min after injection): 0.37 ± 0.10 percent dose per gram
Tissue distribution of radioactivity, Muscle (120 min after injection): 0.19 ± 0.003 percent dose per gram
Tissue distribution of radioactivity, Pancreas (120 min after injection): 2.48 percent dose per gram
Tissue distribution of radioactivity, Spleen (120 min after injection): 0.33 ± 0.02 percent dose per gram
Tissue distribution of radioactivity, Testis (120 min after injection): 0.10 ± 0.004 percent dose per gram
Tissue distribution of radioactivity, Kidney [2]: 2.97 ± 0.17 percent dose per gram
Tissue distribution of radioactivity, Liver [2]: 0.48 ± 0.03 percent dose per gram
Tissue distribution of radioactivity, Pancreas [2]: 2.48 ± 0.03 percent dose per gram
uptake of radioactivity in heart, lung, bone, blood, muscle and testis (normal rats, 5 minutes): < 0.55 % ID/g
brain uptake of radioactivity (normal rats, all time points): approximately 0.05 % ID/g
